Nine molecules from paper PMC4730117, “In vitro Biochemical Characterization of All Barley Endosperm Starch Synthases” (Frontiers in Plant Science, 2016) can be followed below.

Usually Km stands for the substrate concentration at which the rate is half of its maximum.

In one data set the target is T1, HvSSI (Hordeum vulgare, UniProt Q9M5A3).
T1 construct: gene SSI; without predicted chloroplast transit peptide, N-terminal His-tag, codon-optimised, E. coli
T1 sequence (Q9M5A3 32-643): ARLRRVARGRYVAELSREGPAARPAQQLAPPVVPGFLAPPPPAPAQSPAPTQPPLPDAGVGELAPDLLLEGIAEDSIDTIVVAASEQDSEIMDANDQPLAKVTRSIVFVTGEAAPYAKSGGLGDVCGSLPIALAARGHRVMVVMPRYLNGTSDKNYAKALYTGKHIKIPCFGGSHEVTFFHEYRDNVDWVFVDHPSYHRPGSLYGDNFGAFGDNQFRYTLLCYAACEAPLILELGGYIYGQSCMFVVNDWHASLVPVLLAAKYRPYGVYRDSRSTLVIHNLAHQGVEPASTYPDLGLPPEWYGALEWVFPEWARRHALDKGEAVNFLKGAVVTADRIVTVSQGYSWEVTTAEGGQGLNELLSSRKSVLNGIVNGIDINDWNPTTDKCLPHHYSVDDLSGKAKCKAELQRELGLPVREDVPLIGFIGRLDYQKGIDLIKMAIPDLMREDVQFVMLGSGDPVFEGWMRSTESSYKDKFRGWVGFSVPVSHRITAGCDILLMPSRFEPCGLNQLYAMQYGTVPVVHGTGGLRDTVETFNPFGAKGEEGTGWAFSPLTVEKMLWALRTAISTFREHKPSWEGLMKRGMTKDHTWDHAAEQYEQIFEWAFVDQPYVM
Kind of data set: biochemical. As to conditions: 0.1 mg/mL HvSSI, 1X Sypro orange, 20 mM Tris pH 8.0, 100 mM NaCl, read-out: Δ Tm to reference; for ΔTm at 10000 µM: 10 mM. Also noted: Thermofluor (differential scanning fluorimetry, Sypro orange), shift of melting temperature of HvSSI versus no additive. Here is the method:
HvSSI unfolding temperatures were measured with a variant of the Thermofluor method (Niesen et al., [2007]). Details are given in S.I. The effect of additives on SSI stability was studied in some detail with the thermofluor assay; details for many additives are given in S.I. The strongest effects were from sugars, which increased protein stability by 1°C for every 50 mM hexose present as oligosaccharides, with glucose and other monosaccharides having only half the effect.

Substrate in data set [1]: Nc1ncnc2c1ncn2[C@@H]1O[C@H](COP(=O)(O)OP(=O)(O)O[C@H]2O[C@H](CO)[C@@H](O)[C@H](O)[C@H]2O)[C@@H](O)[C@H]1O
Kind of data set: coupled spectrophotometric assay (pyruvate kinase / lactate dehydrogenase, NADH). Particulars: 10 mM maltotriose acceptor, 50 mM Bicine pH 8.5, 25 mM KOAc, 2 mM MgCl2, 37°C. It counts as biochemical, Hordeum vulgare. The text has this:
coupled spectrophotometric assay (pyruvate kinase / lactate dehydrogenase, NADH) on HvSSI

Substrate in data set [2]: Nc1ncnc2c1ncn2[C@@H]1O[C@H](COP(=O)(O)OP(=O)(O)O[C@H]2O[C@H](CO)[C@@H](O)[C@H](O)[C@H]2O)[C@@H](O)[C@H]1O
The description is as above. As to conditions: 10 mM maltotriose acceptor, 50 mM Bicine pH 8.5, 25 mM KOAc, 2 mM MgCl2, 37°C. It counts as biochemical, Hordeum vulgare. The source says:
coupled spectrophotometric assay (pyruvate kinase / lactate dehydrogenase, NADH) on HvSSIIIb
This is another data set of the same source.

Substrate in data set [3]: Nc1ncnc2c1ncn2[C@@H]1O[C@H](COP(=O)(O)OP(=O)(O)O[C@H]2O[C@H](CO)[C@@H](O)[C@H](O)[C@H]2O)[C@@H](O)[C@H]1O
The description is as above. Type of data set: biochemical, Hordeum vulgare. Particulars: 10 mM maltotriose acceptor, 50 mM Bicine pH 8.5, 25 mM KOAc, 2 mM MgCl2, 37°C. The text has this:
coupled spectrophotometric assay (pyruvate kinase / lactate dehydrogenase, NADH) on […]
The source holds these as a separate data set.

Substrate in data set [4]: Nc1ncnc2c1ncn2[C@@H]1O[C@H](COP(=O)(O)OP(=O)(O)O[C@H]2O[C@H](CO)[C@@H](O)[C@H](O)[C@H]2O)[C@@H](O)[C@H]1O
The description is as above. As to conditions: 100 mM maltose (DP = 2) acceptor, 50 mM Bicine pH 8.5, 25 mM KOAc, 2 mM MgCl2, 37°C. It counts as biochemical, Hordeum vulgare. The source says: coupled spectrophotometric assay (pyruvate kinase / lactate dehydrogenase, NADH) on HvGBSSI

`C[C@H]1O[C@H](O[C@H]2[C@H](O)[C@@H](O)[C@@H](O[C@H]3[C@H](O)[C@@H](O)C(O)O[C@@H]3CO)O[C@@H]2CO)[C@H](O)[C@@H](O)[C@@H]1N[C@H]1C=C(CO)[C@@H](O)[C@H](O)[C@H]1O` (stereo partly shown) [acarbose]: the ΔTm at 10000 µM on HvSSI turned out to be 0.4 °C. On to `OC[C@H]1OC(O)[C@H](O)[C@@H](O)[C@@H]1O` (stereo partly shown) [glucose], for which, at HvSSI (100 mM), the ΔTm at 100000 µM turned out to be 1 °C. Take `OC[C@H]1O[C@H](O[C@H]2[C@H](O)[C@@H](O)[C@@H](O[C@H]3[C@H](O)[C@@H](O)[C@@H](O[C@H]4[C@H](O)[C@@H](O)[C@@H](O[C@H]5[C@H](O)[C@@H](O)C(O)O[C@@H]5CO)O[C@@H]4CO)O[C@@H]3CO)O[C@@H]2CO)[C@H](O)[C@@H](O)[C@@H]1O` (stereo partly shown) [maltopentaose]: the ΔTm at 10000 µM at HvSSI came out at 1.3 °C. Same read-out and setting: under `OC[C@H]1O[C@H](O[C@H]2[C@H](O)[C@@H](O)C(O)O[C@@H]2CO)[C@H](O)[C@@H](O)[C@@H]1O` (mixture of isomers) [maltose] stands 0.3 °C; under `OCC1OC(OC2C(CO)OC(OC3C(CO)OC(OC4C(CO)OC(OC5C(CO)OC(OC6C(CO)OC(OC7C(CO)OC(OC8C(CO)OC(O)C(O)C8O)C(O)C7O)C(O)C6O)C(O)C5O)C(O)C4O)C(O)C3O)C(O)C2O)C(O)C(O)C1O` (stereo not shown) [maltooctaose], 2 °C.

B1: HvSSI (Hordeum vulgare) (protein)
chain: ARLRRVARGRYVAELSREGPAARPAQQLAPPVVPGFLAPPPPAPAQSPAPTQPPLPDAGVGELAPDLLLEGIAEDSIDTIVVAASEQDSEIMDANDQPLAKVTRSIVFVTGEAAPYAKSGGLGDVCGSLPIALAARGHRVMVVMPRYLNGTSDKNYAKALYTGKHIKIPCFGGSHEVTFFHEYRDNVDWVFVDHPSYHRPGSLYGDNFGAFGDNQFRYTLLCYAACEAPLILELGGYIYGQSCMFVVNDWHASLVPVLLAAKYRPYGVYRDSRSTLVIHNLAHQGVEPASTYPDLGLPPEWYGALEWVFPEWARRHALDKGEAVNFLKGAVVTADRIVTVSQGYSWEVTTAEGGQGLNELLSSRKSVLNGIVNGIDINDWNPTTDKCLPHHYSVDDLSGKAKCKAELQRELGLPVREDVPLIGFIGRLDYQKGIDLIKMAIPDLMREDVQFVMLGSGDPVFEGWMRSTESSYKDKFRGWVGFSVPVSHRITAGCDILLMPSRFEPCGLNQLYAMQYGTVPVVHGTGGLRDTVETFNPFGAKGEEGTGWAFSPLTVEKMLWALRTAISTFREHKPSWEGLMKRGMTKDHTWDHAAEQYEQIFEWAFVDQPYVM
notes: without predicted chloroplast transit peptide, N-terminal His-tag, codon-optimised, E. coli
Take B1: in data set [1], the Michaelis-Menten constant (Km) turned out to be 630 ± 20 µM.

B2: HvSSIIIb (Hordeum vulgare subsp. vulgare) (protein)
chain: SSDYPKRNPRRSSAPKPKGTASRGYAPRPSAESWTSTKKIEHGSADEDGDLGRSNGTLSGDATEQASTAEEESEVEFAGNVSSSAGLEGVAETEKEADQNQLPALSSTSMDVESVNEATEQTIIGDESSVVDFSGNVSGSVALEVVDESETEEEADQKQSSSLASTSMDSESIDRELEGYRARINALVGASTQEQDRSIIGVHDQDKSVISPNEQDISAVDVPEQGLSGVGVTREDPTKQTTSKQEITEAAVEEISSKNFVARKHSISGDGVEASKNANQQPLVDGDELKITEDEEQHEPEMQEYVRKDVDLQALKRRLEELADGNYSIGNKCFVFPELVKADSVIDLYLNRSMSALASEPDILIKGAFNGWRWNHFTERLHKSELSGDWWCCKLYIPKQAYRLDFVFFNGDTVYENNSYNDFVLHIESDIDEHSFEDFLLEEKQRELERLAAEEAERERQAEEERRKEEERAAMEADRAQAKAEVEMTRNNLQHVLGLASRYANNLWYIEPNTYKGGDRVRLYYNRSSGPLKHKNEIWLHGSYNNWTDGPSIVERLVKSDEQDGDWWYANVTLPESALVLDWVFADGPPGNARKYDNNGKRDFHAAVSKSISEDLFWVKEEHRIFERLQRERKEKEDAGRRKAEITARMKAEMKEKTMREFLLSQKHIVYTEPLEVRAGMTVDVLYNPSNTVLNGSPEVWFRCSFNRWTHPSGPLPPQKMVNAENGSHLQATVRVPLDAYMMDFVFSESEEGGMYDNRDGMDYHIPVSDSMAKEPPMHIVHIAVEMAPIAKVGGLGDVVTSLSRAIQDLGHKVEVVFPKYDCLNLSNVKDLHCRQSFTWGGTEIKVWFGKVEGISVYFLEPQNGMFWVGCVYGRNDESRFGFFCHSALEFLLQSGSSPDIIHCHDWSSAPVAWLYKQHYVHNGLPNGRVVFTIHNLEFGVHHIGKAMAHCDKATTVSYTYSKEVSGHGSIAPHYFKFHGIRNGIDSDIWDPYNDNFIPVHYTSENVVEGKSSAKRALQEKLGLHQTDSPLVGIISRLTAQKGIHLIKHAIYRTLERNGQVVLLGSAPDHRIQGDFSNLASKLHGEFDGRVKLCLTYDEPLSHLIYAGADFILVPSIFEPCGLTQLTAMRYGSIPIVRKTGGLYDTVFDVDDDKDRAREQGLEPNGFSFEGADSNGVDYALDRAITTWYDARGWFHSLCKRVMEQDWSWNRPALDYMELYHSARKN
notes: as for B1
Take B2: in data set [2], the Km came out at 440 ± 40 µM and the kcat is on record as >740 turnovers·min^-1 (DP = 3).

B3: HvSSIV (Hordeum vulgare subsp. vulgare) (protein)
chain: QQRPQRSTAGADHLNTAANVRSDEAAVSAEKERQRKYSDGDGISNLQLEDLVEMIQNTEKNILLLNQARLQAMERADKILKEKEALQRKISILETRLSETDAQHKLSSEGNFSESPLALEFDVLKEENILLKEDIEFFKSKLIEVAKTEEGIFKLEKERALLDASLRELESRFIAAQADMMKLGPRDAWWEKVEKLEDLLETTANQVERAAVILDNNHDLQDKLDKLVASLQAANISKFSSSLVDLLQQKVKLVEERFQACNREMHSQIKLYEHSIVEFHDTLSKLIEESEKRSLENFTGNMPSELWSKISLLIDGWLLEKKISYNDASLLREMVRKRDSRLREAYLSYRGTENREVMDNFLKMALPGTSSGLHIAHIAAEMAPVAKVGGLADVISGLGKALQKKGHLVEIILPKYDCMQVDQVSNLKVLDVPVQSYFEGNMFDNKIWTGTVEGLPVYFIEPQHPAMFFSRAQYYGEHDDFKRFTYFSRAALELLYQSGKKVDIIHCHDWQTAFVAPLYWDVYANLGFNSARICFTCHNFEYQGTAPARDLAWCGLDVEHLDRPDRMRDNSHGRINAVKGAVVYSNIVTTVSPTYALEVLSQGGRGLQDTLKVHSRKFLGILNGIDTDTWNPSTDRYLKVQYNAKDLQGKAANKAALREQLNLASAYPSQPLVGCITRLVAQKGVHLIRHAIYKTAELGGQFVLLGSSPVPEIQREFEGIADHFQDNNNIRLILKYDDALSHCIYAASDMFIVPSIFEPCGLTQMIAMRYGSVPIVRKTGGLNDSVFDFDDETIPVEVRNGFTFVKADEQGLSSAMERAFNCYTRKPEVWKQLVQKDMTIDFSWDTSASQYEDIYQKAVARARAAA
notes: without predicted chloroplast transit peptide, C-terminal His-tag, codon-optimised, E. coli
For B3, the Km in data set [3] turned out to be 310 ± 20 µM.

B4: HvGBSSI (Hordeum vulgare) (protein)
chain: ATGSGMNLVFVGAEMAPWSKTGGLGDVLGGLPPAMAANGHRVMVVSPRYDQYKDAWDTSVISEIKVADEYERVRFFHCYKRGVDRVFIDHPWFLEKVRGKTKEKIYGPDAGTDYEDNQQRFSLLCQAALEAPRILNLNNNPYFSGPYGEDVVFVCNDWHTGLLACYLKSNYQSNGIYRTAKVAFCIHNISYQGRFSFDDFAQLNLPDRFKSSFDFIDGYDKPVEGRKINWMKAGILQADKVLTVSPYYAEELISGEARGCELDNIMRLTGITGIVNGMDVSEWDPTKDKFLAVNYDITTALEAKALNKEALQAEVGLPVDRKVPLVAFIGRLEEQKGPDVMIAAIPEILKEEDVQIILLGTGKKKFEKLLKSMEEKFPGKVRAVVRFNAPLAHQMMAGADLLAVTSRFEPCGLIQLQGMRYGTPCVCASTGGLVDTIVEGKTGFHMGRLSVDCNVVEPADVKKVATTLKRAVKVVGTPAYQEMVKNCMIQDLSWKGPAKNWEDVLLELGVEGSEPGIVGEEIAPLAMENVAAP
notes: as for B1
B4: in data set [4], the Km is 90 ± 20 µM.
